Where “and” joins values, the source holds several entries; their conditions need not be identical. Identical values can stand only once. Like-named read-outs stand apart in the source and are kept apart here.
What was measured:
[1] = tested on: 8226/Dox cells; assay: Sensitization of 8226/Dox cells to Vincristine by an MRP-oligo and MDR-ODNs; assay type: cell-based, human; conditions: for IC50: read-out: IC50 dose
Description: (§1) As shown in this example, several oligos which target the MDR1 gene are able to sensitize multidrug-resistant cell lines to the cytotoxic effects of the chemotherapeutic agent Vincristine. Tumor cells were treated in vitro with 10 μM of the indicated oligo for 4 days at 37° C., then counted, dispensed into individual tubes, and pulsed with Vincristine at various doses (serial 5-fold dilutions) for 3 hrs. The cells were then washed and seeded into 96-well plates (quadruplicate replicates) for pulsing with tritiated thymidine 3 days later. Cells were harvested the next day (=4th day after drug treatment). Tritiated thymidine uptake was analyzed by liquid scintillation.
In this example, experimental conditions were identical to those utilized in obtaining the data in Example 2.

[2] = tested on: 8226/Dox cells; assay: Sensitization of 8226/Dox cells to VCR by MDR-aptameric oligonucleotides; assay type: cell-based, human; conditions: for Fold Increase in Drug Sensitization: compared to media control
[3] = tested on: 8226/Dox4 human myeloma cells; assay: Vincristine IC50 summary after MDR-oligo treatment; assay type: cell-based; conditions: Homo sapiens, read-out: Vincristine IC50
Description: (§2) In vitro testing of MDR-Oligonucleotides was done on the multidrug-resistant (MDR+) RPMI-8226/Dox4 human multiple myeloma cell line (gift of Dr. William Dalton, Univ. Arizona Cancer Ctr., Tucson). Cells were incubated in vitro for 4 days at 37° C. with MDR-oligos at 0.2 μM final concentration; pulsed 18 hr with serial 5-fold dilutions of chemotherapeutic drug (vincristine) from 1×10^-4 M to 2×10^-10 M. Cells were then washed, and incubated for an additional 4 days. Tritiated thymidine (^3 H-TdR) was added for last 18 hr to measure status of cellular proliferation. Controls included MDR^+ 8226 cells similarly treated with vincristine but pretreated either with (a) control ODNs, or (b) culture medium only.

[4] = tested on: CEM/VLB10 human leukemia cells; assay: Sensitization of CEM/VLB10 cells to Vincristine by MDR-oligos in 5% oxygen; assay type: cell-based; conditions: for IC50: read-out: IC50 dose; for Relative sensitization (fold increase): to Vincristine, 10 μM oligo
Description: as §1

[5] = tested on: 8226/Dox4 cells; assay: Parsimonious regression model estimates of count and Vincristine IC50; assay type: cell-based, human; conditions: Homo sapiens, read-out: Estimated IC50
Description: as §2
The following mathematical/statistical model was used to analyze the effects of oligos and various drug treatments on targeted tumor cells in these studies. The model is based on experiments which generally involve treatment of tumor cells with one of several ODNs or media only, and with several dose levels of an anti-cancer agent (such as, for example, vincristine (VCR)) or media only. Analysis goals were to model the relationship of cell kill to the dose of VCR (for example), and to compare the effects of the various ODNs.
This final model contained 10 regressor variables.
Various estimates of parameters from the parsimonious model are shown in TABLE 13, which contains the model estimate of the count for each ODN with media only; differences here (when compared to "media only" [no ODN]) reflect the cell kill associated with the ODN alone. TABLE 13 also contains an estimate of IC50 values, the dose of vincristine (VCR) which is estimated to produce an expected count which is exactly half that expected with "media only" [no VCR]. While formal statistical comparisons of the IC50 values of the various ODNs is not possible, an ordering of the ODNs by estimated IC50 values is possible.

[6] = tested on: 8226/Dox human myeloma cells; assay: Sensitivity of 8226/Dox cells to Vincristine with increasing time after Vincristine exposure; assay type: cell-based; conditions: for IC50: Homo sapiens; for Relative Sensitization (fold increase) Day 5: Day 5 after Vincristine exposure; for Relative Sensitization (fold increase) Day 7: Day 7 after Vincristine exposure; for Relative Sensitization (fold increase) Day 9: Day 9 after Vincristine exposure
Description: As shown in this example, several oligos which target the MDR1 gene are able to sensitize multidrug-resistant cell lines to the cytotoxic effects of the chemotherapeutic agent Vincristine. […] The cells were then washed and seeded into 96-well plates (quadruplicate replicates) for pulsing with tritiated thymidine 3 days later. Cells were harvested the next day (=4th day after drug treatment). Tritiated thymidine uptake was analyzed by liquid scintillation.
As shown in this example, it was determined that there was an increase in sensitivity of multidrug-resistant 8226/Dox human myeloma cells to Vincristine with increasing time of incubation following initial exposure to Vincristine. The experimental conditions were identical to those utilized in obtaining the data shown in Table 7, except that the present experiment had two additional time points.

[7] = tested on: 8226/Dox human myeloma cells; assay: Sensitization of 8226/Dox cells to Vincristine by MDR-oligos in 5% oxygen; assay type: cell-based; conditions: for IC50: read-out: IC50 dose; for Relative sensitization (fold increase): to Vincristine, 10 μM oligo
Description: as §1

[8] = tested on: 8226/Dox cells; assay: Sensitization of 8226/Dox cells to doxorubicin by MDR-oligos (tritiated thymidine uptake); assay type: cell-based, human; conditions: for IC50: read-out: IC50 dose
Description: Multidrug resistant tumor cells were incubated with 15 μM of OL(6)mdr oligo, Cohen(1)mdr oligo or a negative-control (HIV-2) oligo for 4 days at 37° C. in a humidified incubation chamber. Varying doses (5-fold serial dilutions) of doxorubicin (from 1×10^-5 M to 1×10^-8 M) were then added to the culture wells after the cells had been subcultured into media without oligos; cells were then incubated in the same culture environment for an additional three days. Radiolabeled (tritiated) thymidine was added to all cultures for 24 hr before harvest. Each data point is the mean of 4 replicates.

[9] = tested on: A427 human non-small-cell lung adenocarcinoma cell line; assay: Sensitization of A427 lung cancer cells to etoposide by MRP-oligos; assay type: cell-based
Description: The human non-small-cell lung adenocarcinoma cell line A427 was treated with oligos at various concentrations for 4 days in vitro. The cells then were pulsed with various concentrations of etoposide (range 1.6×10^-4 to 1×10^-6 M) for 3 hrs. Next, cells were trypsinized and seeded by volume into 96-well plates with 12 replicates per treatment condition. Three days later, tritiated thymidine was added and the cells harvested the next day.

[10] = tested on: RPMI-8226/Dox4 human multiple myeloma cell line; assay: Relative activity of MRP-ODNs (summary); assay type: cell-based; design: key: --: no effect; +: weak positive effect; +++++: strong positive effect
[11] = Vincristine IC50 after 4 days with 10 μM oligo, 5% oxygen

## CC[C@]1(O)C[C@H]2CN(CCc3c([nH]c4ccccc34)[C@@](C(=O)OC)(c3cc4c(cc3OC)N(C=O)[C@H]3[C@@](O)(C(=O)OC)[C@H](OC(C)=O)[C@]5(CC)C=CCN6CC[C@]43[C@@H]65)C2)C1 [Vincristine, reference compound]
[1]; Homo sapiens
  IC50: 1100 nM
[2]; Homo sapiens, VCR, Media (no oligo)
  IC50: 40000 nM
[3]
  IC50: 12000 nM
[4]; Homo sapiens
  IC50: 10000 nM
[5]
  IC50: 12800 nM
[6]; 120 h, read-out: IC50 Value on Day 5
  IC50: 440 nM
[6]; 168 h, read-out: IC50 Value on Day 7
  IC50: 7000 nM
[6]; 216 h, read-out: IC50 Value on Day 9
  IC50: 550000 nM
[7]; Homo sapiens
  IC50: 450 nM

## COc1cccc2c1C(=O)c1c(O)c3c(c(O)c1C2=O)C[C@@](O)(C(=O)CO)C[C@@H]3O[C@H]1C[C@H](N)[C@H](O)[C@H](C)O1 [doxorubicin, reference compound]
[8]; Homo sapiens
  IC50: 650 nM

## MDR-APT-1: MDR-aptameric oligonucleotide, SEQ ID NO 88: CCCCTGGCGTTACCTCCTCGTTTCT (CCCCTGGCGTTACCTCCTCGTTTCT; chemistry not given here)
[2]
  Fold Increase in Drug Sensitization: 40,000 fold

## MDR-APT-2: MDR-aptameric oligonucleotide, SEQ ID NO 89: TTCGCCTGATTTCCGCCTCCCGTCT (TTCGCCTGATTTCCGCCTCCCGTCT; chemistry not given here)
[2]
  Fold Increase in Drug Sensitization: 20,000 fold

## MDR-APT-3: MDR-aptameric oligonucleotide, SEQ ID NO 90: CGGTCCGTTA TGTTCCTG (CGGTCCGTTATGTTCCTG; chemistry not given here)
[2]
  Fold Increase in Drug Sensitization: 5,714 fold

## MDR-APT-4: MDR-aptameric oligonucleotide, SEQ ID NO 91: ACTCGCCTCCCACGTAGTGCTT (ACTCGCCTCCCACGTAGTGCTT; chemistry not given here)
[2]
  Fold Increase in Drug Sensitization: > 40,000 fold

## OL(6)mdr: SEQ ID NO 1: CCCACGCCCC GGCGCTGTTC (CCCACGCCCCGGCGCTGTTC; chemistry not given here)
[9]; oligo 1 μM
  Etoposide (VP-16) Relative Sensitization (fold increase): 0 fold increase
[9]; oligo 2.5 μM
  Etoposide (VP-16) Relative Sensitization (fold increase): 0 fold increase
[9]; oligo 5.0 μM
  Etoposide (VP-16) Relative Sensitization (fold increase): 1.2 fold increase
[9]; oligo 10 μM
  Etoposide (VP-16) Relative Sensitization (fold increase): 1.6 fold increase
[4]; [11]
  IC50: 120 nM
[4]; 5% oxygen
  Relative sensitization (fold increase): 83 fold increase
[8]; doxorubicin IC50 after 4 days with 15 μM oligo, tritiated thymidine uptake
  IC50: 180 nM
[8]; to doxorubicin, 15 μM oligo, vs medium only
  Relative sensitization (fold increase): 3.6 fold increase
[6]; oligo 2 μM
  Relative Sensitization (fold increase) Day 5: 1.6 fold increase
  Relative Sensitization (fold increase) Day 7: 3.5 fold increase
  Relative Sensitization (fold increase) Day 9: 61 fold increase
[6]; oligo 10 μM
  Relative Sensitization (fold increase) Day 5: 1.8 fold increase
  Relative Sensitization (fold increase) Day 7: 15.9 fold increase
  Relative Sensitization (fold increase) Day 9: 550 fold increase
[7]; [11]
  IC50: 220 nM
[7]; 5% oxygen
  Relative sensitization (fold increase): 2.5 fold increase

## OL(8)MRP: SEQ ID NO 64: GCGGGATGAT GATGGCGGCG (GCGGGATGATGATGGCGGCG; chemistry not given here)
[9]; oligo 2.5 μM
  Etoposide (VP-16) Relative Sensitization (fold increase): 2.0 fold increase
[9]; oligo 5.0 μM
  Etoposide (VP-16) Relative Sensitization (fold increase): 3.6 fold increase
[9]; oligo 10 μM
  Etoposide (VP-16) Relative Sensitization (fold increase): 18 fold increase and 18.0 fold increase
[1]; Vincristine IC50 after oligo treatment, conditions as Example 2
  IC50: 55 nM
[1]; to Vincristine, vs medium only
  Relative sensitization (fold increase): 20 fold increase
[10]
  Relative Activity: +++++

## PA(1)mdr: SEQ ID NO 40: GCGGGAGGTGAGTCACTGTCTCC (GCGGGAGGTGAGTCACTGTCTCC; chemistry not given here)
[4]; [11]
  IC50: 190 nM
[4]; 5% oxygen
  Relative sensitization (fold increase): 53 fold increase
[6]; oligo 2 μM
  Relative Sensitization (fold increase) Day 5: 2.3 fold increase
  Relative Sensitization (fold increase) Day 7: 27 fold increase
  Relative Sensitization (fold increase) Day 9: 1309 fold increase
[6]; oligo 10 μM
  Relative Sensitization (fold increase) Day 5: 6.3 fold increase
  Relative Sensitization (fold increase) Day 7: 28 fold increase
  Relative Sensitization (fold increase) Day 9: 550 fold increase
[7]; [11]
  IC50: 28 nM
[7]; 5% oxygen
  Relative sensitization (fold increase): 16 fold increase
